According to patent US11717553B2, “Combined plant extract for getting rid of mites and acne and preparation method and use thereof” (Nanjing Institute for Comprehensive Utilization of Wild …, priority 2020, dated 2023):
Where two headings read alike, the source gives them in different places.

How the values were obtained:
[1] = system: human follicle mites; assay: In vitro experiment of mite elimination by combined plant extracts and single plant extracts (Example 4); conditions: 4 h
Excerpt: (§1) Mites for experiments: follicle mites were obtained with a transparent tape sticking overnight. Specifically, subjects were required to clean their face thoroughly and stick a transparent tape which is 6 cm long and 1.5 cm wide to their foreheads, cheeks, noses, chins or other sites before going to bed. The tape was peeled off the next day, stuck on a glass slide and observed under a microscope.
Preparation of samples to be tested: a total of 7 samples of combined plant extracts and single plant extracts prepared according to Examples 1-3 and Comparative Examples 1-4, were sequentially denoted as samples no. 1-7 to be tested, and diluted with deionized water to a 25% concentration for later use.
1.2.1 Test groups: the test solutions were denoted as no. 1-7 sequentially, a 2% metronidazole solution was used as the positive control group, and liquid paraffin was used as the blank control group. 10 follicle mites were included in each group. […]
(§2) 1.2.2 Observation method: a micropipette was used to draw 200 μL of an agent solution and drop it on a slide. […] The tapes where follicle mites were detected were stuck on the slides to allow sufficient contact of the solution and the mites. […]
(§3) 1.2.3 Determination of death: the mites whose limbs or feet were immobile under a 400× microscope for 1 min were initially determined to be dead, and those who still immobile after 30 min were diagnosed as dead. […]

[2] = system: human follicle mites; conditions: 4 h
Excerpt: as §1
Preparation of samples to be tested: The combined plant extract prepared according to Example 1 was diluted with deionized water to obtain final concentrations of 100%, 50%, 25%, 12.5%, 6.25%, and 3.125% for later use.
1.2.1 Test groups: the combined plant extract to be tested was divided into 6 concentration gradient groups, a 2% metronidazole solution was used as the positive control group, and liquid paraffin was used as the blank control group. 10 follicle mites were included in each group. […]
as §2, §3

With `Cc1ncc([N+](=O)[O-])n1CCO` [Metronidazole, metronidazole] the “Corrected mortality rate (%) ± SE” value [1] was 56.73 ± 4.07% and the “Corrected mortality rate (%) ± SE” value [2] was 54.66 ± 4.38%.
